System: Unknown protein yeast genes
Assay: DNA chip mRNA expression in yeast, unknown protein yeast genes (Table 1)
Format: cell-based, Saccharomyces cerevisiae S288C
Experimental: Yeast (Saccharomyces cerevisiae S288C (α SUC2mal mel gap2 CUP1)) were incubated at 25° C. on YPD medium (yeast extract 1%, polypepton 2%, glucose 2%). One of toxic chemical substances was added to the cells at logarithmic growth phase, and the cells were further incubated for two hours. Cells were cultured without any chemical substance in the same condition, and were used as control. Concentrations of the chemical substances were defined to inhibit the growth of the yeast but not lead to death.
After completion of the incubation, the culture was centrifuged to collect the cells. To the cells, sodium acetate buffer (50 mM sodium acetate, 10 mM EDTA, 1% SDS) was added, and the mixture was shaken at 65° C. for five minutes, followed by returning to room temperature, and obtaining the supernatant, of which the procedures were repeated two times. To the supernatant, ½ amount of a solution of phenol/chloroform was added, and the mixture was centrifuged to give a supernatant, which was added with an equal amount of chloroform, and the mixture was centrifuged to give a supernatant. To the supernatant, an equal amount of isopropanol containing 0.3 M sodium acetate was added, and the mixture was allowed to stand at room temperature for 30 minutes, after which the mixture was centrifuged to give a sediment of the whole RNAs. Seventy % ethanol was added to the sediment, and the mixture was again centrifuged to give a sediment, which was then dried and dissolved in water. mRNA was isolated from the whole RNAs as followings. In view of the fact that a poly A chain is attached to the 3′ terminus of mRNA, a polynucleotide having a poly T structure which was immobilized on the surface of latex beads was used to trap the mRNA, and then the mRNA was washed and eluted with spine column (Oligotex-dT30<Super>mRNA Purification Kit, Takara). Reverse transcription of the mRNA was conducted with a reverse transcriptase (Super Script II Reverse Transcriptase; catalogue No. 18064-014, GibcoBRL) using fluorescence-labeled nucleotides to give cDNAs that were introduced with Cy3-dUTP or Cy5-dUTP during the reverse transcription.
The labeled cDNAs were dissolved in TE buffer (10mM Tris-HCl/1 mM EDTA, pH8.0), and the solution was dropped on the DNA chip containing the whole genes of yeast (DNA Chip Research Inc. Japan) so that the cDNAs were hybridized on the DNA chip at 65° C. for over 12 hours. The fluoresces intensity of the DNA chip was read with a scanner, and the ratio relative to the fluorescence intensity resulting from the absence of chemical substance was estimated as the following, which is shown in Tables 1 to 9: […]

In the case of `C[S+](C)[O-]` [(15), dimethylsulfoxide], the “The level of expressed mRNA in the presence of chemical substance/The level of expressed mRNA in the absence of chemical substance” value (yeast gene YAL018C) is reported as 6.9, the “The level of expressed mRNA in the presence of chemical substance/The level of expressed mRNA in the absence of chemical substance” value (yeast gene YAL034C) is reported as 1.4 and the “The level of expressed mRNA in the presence of chemical substance/The level of expressed mRNA in the absence of chemical substance” value (yeast gene YAR031W) is reported as 0.9. The “The level of expressed mRNA in the presence of chemical substance/The level of expressed mRNA in the absence of chemical substance” value (yeast gene YAR064W) was 1.9, the “The level of expressed mRNA in the presence of chemical substance/The level of expressed mRNA in the absence of chemical substance” value (yeast gene YBL048W) was 4.1 and the “The level of expressed mRNA in the presence of chemical substance/The level of expressed mRNA in the absence of chemical substance” value (yeast gene YBL107C) was 1.4. The “The level of expressed mRNA in the presence of chemical substance/The level of expressed mRNA in the absence of chemical substance” value (yeast gene YBR012C) was 1.1, the “The level of expressed mRNA in the presence of chemical substance/The level of expressed mRNA in the absence of chemical substance” value (yeast gene YBR062C) was 0.7 and the “The level of expressed mRNA in the presence of chemical substance/The level of expressed mRNA in the absence of chemical substance” value (yeast gene YBR101C, incubated two hours with substance) was 0.5. The “The level of expressed mRNA in the presence of chemical substance/The level of expressed mRNA in the absence of chemical substance” value (yeast gene YBR287W) was 1.3, the “The level of expressed mRNA in the presence of chemical substance/The level of expressed mRNA in the absence of chemical substance” value (yeast gene YCR013C) was 1.6 and the “The level of expressed mRNA in the presence of chemical substance/The level of expressed mRNA in the absence of chemical substance” value (yeast gene YDL027C) was 1.4. For the same molecule, the “The level of expressed mRNA in the presence of chemical substance/The level of expressed mRNA in the absence of chemical substance” value (yeast gene YDL110C) was 1.3, the “The level of expressed mRNA in the presence of chemical substance/The level of expressed mRNA in the absence of chemical substance” value (yeast gene YDL169C) was 2.2 and the “The level of expressed mRNA in the presence of chemical substance/The level of expressed mRNA in the absence of chemical substance” value (yeast gene YDL222C, incubated two hours with chemical substance) was 7.1. For the same molecule, the “The level of expressed mRNA in the presence of chemical substance/The level of expressed mRNA in the absence of chemical substance” value (yeast gene YDR070C) was 2.1, the “The level of expressed mRNA in the presence of chemical substance/The level of expressed mRNA in the absence of chemical substance” value (yeast gene YDR078C, incubated two hours with substance) was 0.5 and the “The level of expressed mRNA in the presence of chemical substance/The level of expressed mRNA in the absence of chemical substance” value (yeast gene YDR128W) was 1.4. The “The level of expressed mRNA in the presence of chemical substance/The level of expressed mRNA in the absence of chemical substance” value (yeast gene YDR202C, incubated two hours with substance) was 0.5, the “The level of expressed mRNA in the presence of chemical substance/The level of expressed mRNA in the absence of chemical substance” value (yeast gene YDR210W) was 1.0 and the “The level of expressed mRNA in the presence of chemical substance/The level of expressed mRNA in the absence of chemical substance” value (yeast gene YDR214W) was 1.1. For the same molecule, the “The level of expressed mRNA in the presence of chemical substance/The level of expressed mRNA in the absence of chemical substance” value (yeast gene YDR250C) was 0.7, the “The level of expressed mRNA in the presence of chemical substance/The level of expressed mRNA in the absence of chemical substance” value (yeast gene YDR278C) was 0.7 and the “The level of expressed mRNA in the presence of chemical substance/The level of expressed mRNA in the absence of chemical substance” value (yeast gene YDR435C) was 0.6. For the same molecule, the “The level of expressed mRNA in the presence of chemical substance/The level of expressed mRNA in the absence of chemical substance” value (yeast gene YDR476C) was 2.2, the “The level of expressed mRNA in the presence of chemical substance/The level of expressed mRNA in the absence of chemical substance” value (yeast gene YER037W) was 0.8 and the “The level of expressed mRNA in the presence of chemical substance/The level of expressed mRNA in the absence of chemical substance” value (yeast gene YER106W, incubated two hours with chemical substance) was 6.8. For the same molecule, the “The level of expressed mRNA in the presence of chemical substance/The level of expressed mRNA in the absence of chemical substance” value (yeast gene YER124C, incubated two hours with substance) was 0.5, the “The level of expressed mRNA in the presence of chemical substance/The level of expressed mRNA in the absence of chemical substance” value (yeast gene YER182W, incubated two hours with substance) was 0.5 and the “The level of expressed mRNA in the presence of chemical substance/The level of expressed mRNA in the absence of chemical substance” value (yeast gene YFL024C) was 0.9. For the same molecule, the “The level of expressed mRNA in the presence of chemical substance/The level of expressed mRNA in the absence of chemical substance” value (yeast gene YGL121C) was 1.6, the “The level of expressed mRNA in the presence of chemical substance/The level of expressed mRNA in the absence of chemical substance” value (yeast gene YGR035C) was 0.3 and the “The level of expressed mRNA in the presence of chemical substance/The level of expressed mRNA in the absence of chemical substance” value (yeast gene YGR110W) was 1.2. The “The level of expressed mRNA in the presence of chemical substance/The level of expressed mRNA in the absence of chemical substance” value (yeast gene YGR139W) was 2.3, the “The level of expressed mRNA in the presence of chemical substance/The level of expressed mRNA in the absence of chemical substance” value (yeast gene YGR211W, incubated two hours with substance) was 0.5 and the “The level of expressed mRNA in the presence of chemical substance/The level of expressed mRNA in the absence of chemical substance” value (yeast gene YGR284C) was 3.9. For the same molecule, the “The level of expressed mRNA in the presence of chemical substance/The level of expressed mRNA in the absence of chemical substance” value (yeast gene YHR029C) was 1.0, the “The level of expressed mRNA in the presence of chemical substance/The level of expressed mRNA in the absence of chemical substance” value (yeast gene YHR054C) was 0.8 and the “The level of expressed mRNA in the presence of chemical substance/The level of expressed mRNA in the absence of chemical substance” value (yeast gene YHR095W) was 0.8. The “The level of expressed mRNA in the presence of chemical substance/The level of expressed mRNA in the absence of chemical substance” value (yeast gene YHR209W) was 5.0, the “The level of expressed mRNA in the presence of chemical substance/The level of expressed mRNA in the absence of chemical substance” value (yeast gene YIL117C, incubated two hours with chemical substance) was 7.5 and the “The level of expressed mRNA in the presence of chemical substance/The level of expressed mRNA in the absence of chemical substance” value (yeast gene YJL037W) was 1.6. For the same molecule, the “The level of expressed mRNA in the presence of chemical substance/The level of expressed mRNA in the absence of chemical substance” value (yeast gene YJL149W, incubated two hours with chemical substance) was 9.0, the “The level of expressed mRNA in the presence of chemical substance/The level of expressed mRNA in the absence of chemical substance” value (yeast gene YJR030C) was 0.8 and the “The level of expressed mRNA in the presence of chemical substance/The level of expressed mRNA in the absence of chemical substance” value (yeast gene YJR085C, incubated two hours with substance) was 0.5. For the same molecule, the “The level of expressed mRNA in the presence of chemical substance/The level of expressed mRNA in the absence of chemical substance” value (yeast gene YKL071W) was 1.7, the “The level of expressed mRNA in the presence of chemical substance/The level of expressed mRNA in the absence of chemical substance” value (yeast gene YKL107W) was 1.7 and the “The level of expressed mRNA in the presence of chemical substance/The level of expressed mRNA in the absence of chemical substance” value (yeast gene YKR040C) was 1.1. For the same molecule, the “The level of expressed mRNA in the presence of chemical substance/The level of expressed mRNA in the absence of chemical substance” value (yeast gene YKR075C) was 0.4 and the “The level of expressed mRNA in the presence of chemical substance/The level of expressed mRNA in the absence of chemical substance” value (yeast gene YLL056C) was 1.5.
